Paper PMC4474874, “Effect of JAK Inhibitors on Release of CXCL9, CXCL10 and CXCL11 from Human Airway Epithelial Cells” (PLoS ONE, 2015)

Assays:
[1] = tested on: BEAS-2B and human primary airway epithelial cells; test: Cell viability, MTT assay; assay type: cell-based; conditions: for cell viability compared to untreated cells (MTT): at 10^-6M and at all concentrations below this
Method: Cell viability was determined colorimetrically by measuring the reduction of 3-[4,5-dimethylthiazol-2-yl]-2,5-diphenyltetrazolium bromide, MTT, to formazan by mitochondrial dehydrogenases, as described previously.
In order to determine whether any of the inhibitory effects of the JAK inhibitors could be attributed to cell death, MTT assays were performed at the end of every experiment. […] In order to address this issue, the levels of IL-6 released from cells stimulated with IFNγ + TNFα were measured.

[2] = tested on: BEAS-2B cells; test: mRNA expression of CXCL9, CXCL10 and CXCL11 in BEAS-2B cells (Taqman RT-PCR); assay type: cell-based, human; conditions: BEAS-2b, pretreated 1h, IFNγ or IFNγ with TNFα for 4h
Method: Total RNA was extracted from cells and reverse transcribed, as described previously. Gene expression was determined by Taqman real-time PCR on a 7500 Real Time PCR system (Applied Biosystems, Life Technologies Ltd, Paisley, UK) using PCR Master Mix Reagent and ‘assays on demand’ (Applied Biosystems). HPRT1 gene expression was used as the housekeeping gene and data presented as δδCT relative to baseline.
Gene expression of CXCL9 (panels a and b), CXCL10 (panels c and d) and CXCL11 (panels e and f) were quantified by Taqman RT-PCR. Data are presented as fold change form stimulus ± SEM; n = 3 where 1 indicates the level of mRNA induced by IFNγ or IFNγ + TNFα in the absence of inhibitors.

[3] = tested on: STAT-3; test: STAT-3 DNA binding in BEAS-2B cells (TransAM); assay type: cell-based, human; conditions: IFNγ + TNFα, inhibitor 10^-6M
Method: STAT phosphorylation, nuclear translocation and DNA binding was determined using TransAM assays (Actif Motif, Rixensart, Belgium). Cells were treated with JAK inhibitors for 30 min prior to stimulation for 1h. Nuclear extracts were prepared using the Actif Motif assay reagents. Briefly, the nuclear extracts (10 μg) were incubated in DNA coated plates for 1h. After washing, antibodies supplied with the TransAM kit that were specific for the active forms of STAT1, STAT3, STAT5A and STAT5B were added to the wells and incubated for a further hour. The plates were washed and a secondary HRP-labelled anti-goat Ig antibody was added and the plates incubated for an hour. After washing, the assay was developed using the TMB substrate provided and the reaction stopped using 2N sulphuric acid. The plates were read at 450nm with a reference filter of 610nm. Data were then normalised to non-stimulated cells and calculated as fold change from baseline.
After 1 h, nuclear extracts of the cells were prepared and TransAM assays for STAT-1 (panel a) and STAT-3 (panel b) were performed. Data are presented as fold change from baseline ± SEM; n = 4.

[4] = tested on: BEAS-2B cells; test: Release of CXCL9, CXCL10 and CXCL11 from BEAS-2B cells (ELISA), inhibitors added 1h before stimulus; assay type: cell-based, human; conditions: for IC50: BEAS-2B, pre-treated 1h
Method: BEAS-2B cells (catalogue number CRL-9609) were purchased directly from American Type Culture Collection (Rockville, MD). Keratinocyte serum-free medium (K-SFM), bovine pituitary extract (BPE), and recombinant human epidermal growth factor (EGF) were purchased from Invitrogen (Paisley, UK). BEAS-2B cells were cultured in K-SFM containing 50 μg/ml BPE and 5 ng/ml EGF at 37°C in a humidified atmosphere comprising 5% (v/v) CO2 in air. Cells were cultured as monolayers in growth factor-free media for 24 h prior to stimulation. Human primary airway epithelial cells were cultured as monolayers from bronchial brushings from both male and female subjects (Table 1) and cultured in LHC-9 media (Invitrogen, Paisley, UK) in collagen (1% w/v) coated flasks. Samples were obtained from non-smokers, smokers and patients with COPD. […] The subjects were matched for age and smokers and COPD patients for smoking history (Table 1). All subjects gave informed written consent and the study was approved by the NRES London-Chelsea Research Ethics committee, study number 09/H0801/85.
(§1) Cell-free supernatants were removed 20h post-stimulation and assayed for CXCL9, CXCL10 and CXCL11 using Duoset ELISA kits (R & D Systems Europe, Abingdon, UK) according to the manufacturer’s instructions. The detection limits of these assays are 62pg/ml, 31pg/ml, and 7.8 pg/ml respectively.
Data are presented as mean ± SEM of ‘n’ independent determinations. Concentration-response curves were analysed by least-squares, non-linear iterative regression with the ‘Graphpad Prism’ curve fitting program (GraphPad software, San Diego, USA) and IC50 values were subsequently interpolated from curves of best-fit. Statistical differences were determined using the Kruskal–Wallis test followed by Dunn's multiple comparison test or a Wilcoxon signed rank test as appropriate. Values of P<0.05 were considered significant.
Media was harvested and the concentrations of CXCL9 (panels a and d), CXCL10 (panels b and e) and CXCL11 (panels c and f) were measured by ELISA. Data are presented as mean±SEM, n = 7–8.

[5] = tested on: BEAS-2B cells; test: Release of CXCL9, CXCL10 and CXCL11 from BEAS-2B cells (ELISA), inhibitors added concomitantly with stimulus; assay type: cell-based, human
Method: as §1
It was possible that concomitant addition of stimulus and JAK inhibitors may elicit a different inhibitory profile, therefore to address this, experiments were performed. […] Experiments were then performed to determine the effects of both JAK inhibitors in human primary airway epithelial cells in order to determine whether their ability to suppress CXCR3 chemokine release from BEAS-2B cells was reflective of their efficacy in primary cells.
Media was harvested and the concentrations of CXCL9 (panels a and d), CXCL10 (panels b and e) and CXCL11 (panels c and f) were measured by ELISA. Data are presented as mean±SEM, n = 7–8. (EPS) Click here for additional data file. […]
After this time, media was harvested and the concentrations of CXCR3 chemokines measured by ELISA. Data are presented as mean±SEM, n=4

## C[C@@H]1CCN(C(=O)N2CCCC2)C[C@@H]1N(C)c1ncnc2[nH]ccc12 [PF956980]
[1]; any of the concentrations used in this study
  effect on cell viability (MTT): no effect on cell viability
[1]
  cell viability compared to untreated cells (MTT): no alterations in cell viability
[2]
  effect on expression of CXCL9, CXCL10 and CXCL11 (mRNA): suppressed expression of CXCL9, CXCL10 and CXCL11 in a concentration dependent manner
[3]
  effect on STAT-3 binding to DNA: suppressed
[4]; IFNγ (10ng/ml) 20h, read-out: IC50, release of CXCL9
  IC50: 400 ± 100 nM
[4]; IFNγ (10ng/ml) 20h, read-out: IC50, release of CXCL10
  IC50: 600 ± 300 nM
[4]; IFNγ (10ng/ml) 20h, read-out: IC50, release of CXCL11
  IC50: 500 ± 100 nM
[4]; IFNγ+TNFα (10ng/ml) 20h, read-out: IC50, release of CXCL9
  IC50: 600 ± 100 nM
[4]; IFNγ+TNFα (10ng/ml) 20h, read-out: IC50, release of CXCL10
  IC50: 2200 ± 300 nM
[4]; present study, IFNγ-stimulated
  effect on IFNγ-stimulated release of CXCL9, CXCL10 and CXCL11: completely attenuated
[5]; inhibitor concomitant with IFNγ (10 ng/ml) 20h, read-out: IC50, release of CXCL9
  IC50: 300 ± 100 nM
[5]; inhibitor concomitant with IFNγ (10 ng/ml) 20h, read-out: IC50, release of CXCL10
  IC50: 1100 ± 400 nM
[5]; inhibitor concomitant with IFNγ (10 ng/ml) 20h, read-out: IC50, release of CXCL11
  IC50: 1100 ± 300 nM
[5]; inhibitor concomitant with IFNγ+TNFα (10 ng/ml) 20h, read-out: IC50, release of CXCL9
  IC50: 1000 ± 300 nM
[5]; inhibitor concomitant with IFNγ+TNFα (10 ng/ml) 20h, read-out: IC50, release of CXCL10
  IC50: 4000 ± 1300 nM

## CCc1cc(O)ccc1-c1ccc2c(-c3nc4ccccc4[nH]3)n[nH]c2c1 [PF1367550, 4-(3-(1H-benzo[d]imidazol-2-yl)-1H-indazol-6-yl)-3-ethylphenol]
[1]
  cell viability compared to untreated cells (MTT): no alterations in cell viability
[1]; within 10^3 of the IC50 for this compound
  effect on cell viability (MTT): no effect on cell viability
[2]
  effect on expression of CXCL9, CXCL10 and CXCL11 (mRNA): completely inhibited
[3]
  effect on STAT-3 binding to DNA: suppressed
[4]; BEAS-2B cells, IFNγ and IFNγ+TNFα
  fold more potent than PF956980, CXCR3 chemokine release: ~ 50 fold
[4]; Homo sapiens, IFNγ (10ng/ml) 20h, read-out: IC50, release of CXCL9
  IC50: 3.6 ± 1.4 nM
[4]; Homo sapiens, IFNγ (10ng/ml) 20h, read-out: IC50, release of CXCL10
  IC50: 6.1 ± 2 nM
[4]; Homo sapiens, IFNγ (10ng/ml) 20h, read-out: IC50, release of CXCL11
  IC50: 11.5 ± 2 nM
[4]; Homo sapiens, IFNγ+TNFα (10ng/ml) 20h, read-out: IC50, release of CXCL9
  IC50: 13.3 ± 2 nM
[4]; Homo sapiens, IFNγ+TNFα (10ng/ml) 20h, read-out: IC50, release of CXCL10
  IC50: 50.3 ± 8.5 nM
[4]; Homo sapiens, IFNγ+TNFα (10ng/ml) 20h, read-out: IC50, release of CXCL11
  IC50: 13.9 ± 2.6 nM
[5]; Homo sapiens, 20 h, inhibitor concomitant with IFNγ (10 ng/ml) 20h, read-out: IC50, release of CXCL9
  IC50: 10.3 ± 2.1 nM
[5]; Homo sapiens, 20 h, inhibitor concomitant with IFNγ (10 ng/ml) 20h, read-out: IC50, release of CXCL10
  IC50: 16.6 ± 2.7 nM
[5]; Homo sapiens, 20 h, inhibitor concomitant with IFNγ (10 ng/ml) 20h, read-out: IC50, release of CXCL11
  IC50: 16 ± 4.1 nM
[5]; Homo sapiens, 20 h, inhibitor concomitant with IFNγ+TNFα (10 ng/ml) 20h, read-out: IC50, release of CXCL9
  IC50: 31.6 ± 13.4 nM
[5]; Homo sapiens, 20 h, inhibitor concomitant with IFNγ+TNFα (10 ng/ml) 20h, read-out: IC50, release of CXCL10
  IC50: 146 ± 32.6 nM
[5]; Homo sapiens, 20 h, inhibitor concomitant with IFNγ+TNFα (10 ng/ml) 20h, read-out: IC50, release of CXCL11
  IC50: 32 ± 8.7 nM
